This note sets out measurements from US20090010976A1, “Cosmetic or dermopharmaceutical compositions containing kombucha” (SEDERMA, priority 2002, published 2009).

This series concerns serum albumin. As to the kind of experiment: Anti-glycation effect: serum albumin incubated with fructose, fluorescent 'AGE' (FFI) formation. The class given is biochemical. The conditions noted are these: one week. The procedure: Principle: The in vitro model consists in serum albumin incubated with fructose at […]. Glycation is monitored through the formation of fluorescent compounds, generally pentosidines or FFI (furoyl-furanyl-imidazoles.
Protocol: Non-enzymatic glycation between serum albumin and fructose is a slow spontaneous reaction that is accelerated by heat.
In our test, serum albumin (at 2%) and fructose (at 100 mM) were incubated in phosphate buffer medium pH 7.4 at 50° C. for one week. […] The reference (Control) glycation value after one week is determined on the serum albumin and fructose incubation medium. The positive control for glycation inhibition is obtained by incubation in the presence of 0.03% aminoguanidine and the test incubations were conducted in the presence of kombucha at various concentrations.
Results: For each fluorescence value determined, the percentage change on the control is calculated. The results shown in the following table are mean values for n=4 replicates.

Consider `N=C(N)NN` [aminoguanidine], for which the “% 'AGE' decrease (inhibition of 'AGE' production, FFI compounds)” value (aminoguanidine 0.03%, serum albumin 2% + fructose 100 mM, pH 7.4, 50° C., mean of n=4) turned out to be 89 ± 5%. Moreover, where the note is “serum albumin + fructose, 50° C.”, the “Inhibition of glycation, result in words” value is recorded as “excellent inhibition of glycation”.
